Measurements taken from patent publication US20020143047A1, “Methods for treating indomethacin responsive headaches” (priority 2001, published 2002).

Test system: patient suffering from hemicrania continua and ulceritive colitis
Experiment: Clinical treatment of a patient with hemicrania continua: topical indomethacin patch, and prior oral indomethacin
Type: in vivo, human
Method: Typically, the symptom ameliorated by the subject methods is pain associated with the syndrome being treated. In many embodiments, the intensity of pain associated with the syndrome is at least reduced, if not eliminated. Reduction in pain intensity is evaluated according to the protocol described at pages 161-176, and particularly page 172, of “Guidelines for Controlled Trials of Drugs in Cluster Headache,” published by the International Headache Society Committee on Clinical Trials in Cluster Headache. The magnitude of reduction in pain intensity is generally at least about 10%, usually at least about 25% and more usually at least about 50%, where magnitude of reduction may be as high as 75%, 80%, 95% or higher, including a complete cessation of pain, as determined by the assay described above.
The topical formulation described in I, above, was employed to treat a patient suffering from hemicrania continua and ulceritive colitis. The patient suffered from a six-year history of constant right-sided hemicranial pain of mild to moderate severity. Superimposed exacerbations of more intense pain occurred twice weekly and would last up to twelve hours. These painful exacerbations were associated with ipsilateral ptosis, conjunctival injection and lacrimation.
The patient was then treated with the topical application of indomethacin described in I, above, by applying the topical application to the site of maximal pain, i.e. the right forehead and temple. […] The patient was then instructed to reapply the patch twice daily, at twelve hour intervals. […] This was a favorable result compared with other forms of treatment that the patient had previously employed, whereas despite appropriate therapy, the patient's other medical condition worsened in response to oral administration of indomethacin.

[1] = prior treatment, 25 mg, three times daily

Q: With `COc1ccc2c(c1)c(CC(=O)O)c(C)n2C(=O)c1ccc(Cl)cc1` [indomethacin, Indomethacin] as the compound, how does the “effect on gastrointestinal symptoms” value (decreased dosage) read?
A: The value was “continued to aggravate the gastrointestinal symptoms”.

Q: And the “effect on headache syndrome” value (decreased dosage)?
A: The value was “did not abolish the headache syndrome”.

Q: What about the effect on pain [1] of the same compound?
A: The effect on pain was “complete resolution of pain”.

Q: What about the “effect on patient's ulcerative colitis” value [1] of the same compound?
A: The value was “significant worsening”.
